Earlier results as cited in patent US20230149481A1, “COMBINATION THERAPY FOR INFLAMMATORY BOWEL DISEASE” (Servatus Ltd, priority 2020, published 2023).

System: DSS-induced colitis
Details: previous tests in the same DSS-induced colitis model, compared with the Group 5 treatment of Example 1

In the case of `O=C(O)c1cc(/N=N/c2ccc(S(=O)(=O)Nc3ccccn3)cc2)ccc1O` [sulfasalazine], the in-life disease score is listed as “None of these drugs statistically improved the in-life disease score to the extent observed”.

In the case of `C[C@]12C=CC(=O)C=C1CC[C@@H]1[C@@H]2[C@@H](O)C[C@@]2(C)[C@H]1CC[C@]2(O)C(=O)CO` [prednisolone], the in-life disease score is listed as “None of these drugs statistically improved the in-life disease score to the extent observed”.
